Results as given in ChEMBL document CHEMBL4507276 (2021).

Columns and labels:
[1] = test system: Tyrosine-protein kinase ABL1 (Homo sapiens), P00519 [F317L]; details: Compound concentration 1000.0 nM
[2] = molecular target: Serine/threonine-protein kinase PAK 4 (Homo sapiens) (UniProt O96013); details: Compound concentration 1000.0 nM
[3] = molecular target: T1, Serine/threonine-protein kinase 3 (Homo sapiens) (UniProt Q13188); details: Compound concentration 1000.0 nM
T1 sequence (whole entry): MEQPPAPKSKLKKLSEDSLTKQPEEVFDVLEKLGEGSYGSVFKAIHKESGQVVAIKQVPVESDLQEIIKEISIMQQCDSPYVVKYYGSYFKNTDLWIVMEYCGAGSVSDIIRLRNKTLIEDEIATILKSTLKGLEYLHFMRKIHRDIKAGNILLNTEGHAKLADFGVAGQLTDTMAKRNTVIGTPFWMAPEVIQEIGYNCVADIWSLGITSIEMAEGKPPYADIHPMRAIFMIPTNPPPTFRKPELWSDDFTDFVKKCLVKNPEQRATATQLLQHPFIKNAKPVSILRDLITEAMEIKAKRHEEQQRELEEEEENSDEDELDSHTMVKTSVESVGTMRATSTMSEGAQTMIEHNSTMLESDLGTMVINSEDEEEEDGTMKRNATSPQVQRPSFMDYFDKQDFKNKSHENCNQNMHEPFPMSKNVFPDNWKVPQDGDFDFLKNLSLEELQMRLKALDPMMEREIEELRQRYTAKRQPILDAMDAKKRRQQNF

[4] = molecular target: Ribosomal protein S6 kinase alpha-5 (Homo sapiens) (UniProt O75582); details: Compound concentration 1000.0 nM
[5] = molecular target: High affinity nerve growth factor receptor (Homo sapiens) (UniProt P04629); details: Compound concentration 1000.0 nM
[6] = molecular target: SNF-related serine/threonine-protein kinase (Homo sapiens) (UniProt Q9NRH2); details: Compound concentration 1000.0 nM
[7] = molecular target: Interferon-induced, double-stranded RNA-activated protein kinase (Homo sapiens) (UniProt P19525); details: Compound concentration 1000.0 nM
[8] = molecular target: Non-receptor tyrosine-protein kinase TYK2 (Homo sapiens) (UniProt P29597); details: Compound concentration 1000.0 nM
[9] = molecular target: T2, Serine/threonine-protein kinase Sgk2 (Homo sapiens) (UniProt Q9HBY8); details: Compound concentration 1000.0 nM
T2 sequence (whole entry): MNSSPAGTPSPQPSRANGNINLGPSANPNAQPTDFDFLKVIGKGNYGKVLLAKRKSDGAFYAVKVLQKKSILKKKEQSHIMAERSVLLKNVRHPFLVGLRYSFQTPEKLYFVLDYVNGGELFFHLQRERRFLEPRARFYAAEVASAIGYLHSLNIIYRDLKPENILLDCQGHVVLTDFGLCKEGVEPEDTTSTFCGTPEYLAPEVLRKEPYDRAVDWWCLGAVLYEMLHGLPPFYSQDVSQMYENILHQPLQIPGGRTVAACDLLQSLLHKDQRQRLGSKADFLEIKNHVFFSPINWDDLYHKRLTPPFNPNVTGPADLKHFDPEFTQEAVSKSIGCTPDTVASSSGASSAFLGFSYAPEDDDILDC

[10] = test system: Fibroblast growth factor receptor 3 (Homo sapiens), P22607 [G697C]; details: Compound concentration 1000.0 nM
[11] = molecular target: BDNF/NT-3 growth factors receptor (Homo sapiens) (UniProt Q16620); details: Compound concentration 1000.0 nM
[12] = molecular target: Serine/threonine-protein kinase 32A (Homo sapiens) (UniProt Q8WU08); details: Compound concentration 1000.0 nM
[13] = molecular target: Myosin light chain kinase (Homo sapiens) (UniProt Q32MK0); details: Compound concentration 1000.0 nM
[14] = molecular target: Calcium/calmodulin-dependent protein kinase kinase 2 (Homo sapiens) (UniProt Q96RR4); details: Compound concentration 1000.0 nM
[15] = molecular target: Casein kinase I isoform epsilon (Homo sapiens) (UniProt P49674); details: Compound concentration 1000.0 nM
[16] = molecular target: Ephrin type-A receptor 7 (Homo sapiens) (UniProt Q15375); details: Compound concentration 1000.0 nM
[17] = molecular target: Rho-associated protein kinase 2 (Homo sapiens) (UniProt O75116); details: Compound concentration 1000.0 nM
[18] = molecular target: Calcium/calmodulin-dependent protein kinase type II subunit delta (Homo sapiens) (UniProt Q13557); details: Compound concentration 1000.0 nM
[19] = molecular target: Sodium-dependent dopamine transporter (Homo sapiens, UniProt Q01959); details: Compound concentration 10.0 uM
[20] = molecular target: T3, cAMP-dependent protein kinase catalytic subunit PRKX (Homo sapiens) (UniProt P51817); details: Compound concentration 1000.0 nM
T3 sequence (whole entry): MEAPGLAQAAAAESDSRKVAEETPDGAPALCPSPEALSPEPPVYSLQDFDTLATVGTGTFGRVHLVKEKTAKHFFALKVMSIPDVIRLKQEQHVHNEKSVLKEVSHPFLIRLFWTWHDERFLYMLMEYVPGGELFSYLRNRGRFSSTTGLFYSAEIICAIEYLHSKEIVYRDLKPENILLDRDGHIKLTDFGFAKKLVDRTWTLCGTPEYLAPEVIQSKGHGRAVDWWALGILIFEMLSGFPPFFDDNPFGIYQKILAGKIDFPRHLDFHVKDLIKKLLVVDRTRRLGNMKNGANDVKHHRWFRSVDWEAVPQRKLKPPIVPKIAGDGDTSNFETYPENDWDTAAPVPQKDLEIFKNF

[21] = molecular target: Tyrosine-protein kinase Lyn (Homo sapiens) (UniProt P07948); details: Compound concentration 1000.0 nM
[22] = molecular target: Receptor-interacting serine/threonine-protein kinase 2 (Homo sapiens) (UniProt O43353); details: Compound concentration 1000.0 nM
[23] = molecular target: Histamine H2 receptor (Homo sapiens) (UniProt P25021); details: Compound concentration 10.0 uM
[24] = molecular target: Serine/threonine-protein kinase PAK 2 (Homo sapiens) (UniProt Q13177); details: Compound concentration 1000.0 nM
[25] = molecular target: Death-associated protein kinase 2 (Homo sapiens) (UniProt Q9UIK4); details: Compound concentration 1000.0 nM
[26] = molecular target: AP2-associated protein kinase 1 (Homo sapiens) (UniProt Q2M2I8); details: Compound concentration 1000.0 nM
[27] = molecular target: Serine/threonine-protein kinase 38-like (Homo sapiens) (UniProt Q9Y2H1); details: Compound concentration 1000.0 nM
[28] = molecular target: Serine/threonine-protein kinase N2 (Homo sapiens) (UniProt Q16513); details: Compound concentration 1000.0 nM
[29] = molecular target: Sodium-dependent noradrenaline transporter (Homo sapiens) (UniProt P23975); details: Compound concentration 10.0 uM

Calcium/calmodulin-dependent protein kinase kinase 2 (Homo sapiens), sequence (Q96RR4 2-588 limits assumed): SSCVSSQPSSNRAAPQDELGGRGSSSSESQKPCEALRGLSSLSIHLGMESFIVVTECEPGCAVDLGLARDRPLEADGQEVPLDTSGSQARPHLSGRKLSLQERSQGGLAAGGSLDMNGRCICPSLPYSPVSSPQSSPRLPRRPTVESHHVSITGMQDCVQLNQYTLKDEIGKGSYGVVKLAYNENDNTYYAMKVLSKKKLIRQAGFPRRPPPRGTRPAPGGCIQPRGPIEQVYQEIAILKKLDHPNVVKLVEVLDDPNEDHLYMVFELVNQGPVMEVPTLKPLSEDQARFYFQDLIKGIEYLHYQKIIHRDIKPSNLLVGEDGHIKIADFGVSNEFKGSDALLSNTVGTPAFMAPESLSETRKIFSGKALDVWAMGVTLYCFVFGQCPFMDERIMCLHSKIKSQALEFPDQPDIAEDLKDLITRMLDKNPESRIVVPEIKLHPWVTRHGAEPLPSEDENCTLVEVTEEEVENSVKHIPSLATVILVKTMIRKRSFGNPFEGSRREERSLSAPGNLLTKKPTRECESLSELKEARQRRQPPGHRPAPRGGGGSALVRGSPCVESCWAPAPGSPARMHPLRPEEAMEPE
High affinity nerve growth factor receptor (Homo sapiens), sequence (P04629 33-796 limits assumed): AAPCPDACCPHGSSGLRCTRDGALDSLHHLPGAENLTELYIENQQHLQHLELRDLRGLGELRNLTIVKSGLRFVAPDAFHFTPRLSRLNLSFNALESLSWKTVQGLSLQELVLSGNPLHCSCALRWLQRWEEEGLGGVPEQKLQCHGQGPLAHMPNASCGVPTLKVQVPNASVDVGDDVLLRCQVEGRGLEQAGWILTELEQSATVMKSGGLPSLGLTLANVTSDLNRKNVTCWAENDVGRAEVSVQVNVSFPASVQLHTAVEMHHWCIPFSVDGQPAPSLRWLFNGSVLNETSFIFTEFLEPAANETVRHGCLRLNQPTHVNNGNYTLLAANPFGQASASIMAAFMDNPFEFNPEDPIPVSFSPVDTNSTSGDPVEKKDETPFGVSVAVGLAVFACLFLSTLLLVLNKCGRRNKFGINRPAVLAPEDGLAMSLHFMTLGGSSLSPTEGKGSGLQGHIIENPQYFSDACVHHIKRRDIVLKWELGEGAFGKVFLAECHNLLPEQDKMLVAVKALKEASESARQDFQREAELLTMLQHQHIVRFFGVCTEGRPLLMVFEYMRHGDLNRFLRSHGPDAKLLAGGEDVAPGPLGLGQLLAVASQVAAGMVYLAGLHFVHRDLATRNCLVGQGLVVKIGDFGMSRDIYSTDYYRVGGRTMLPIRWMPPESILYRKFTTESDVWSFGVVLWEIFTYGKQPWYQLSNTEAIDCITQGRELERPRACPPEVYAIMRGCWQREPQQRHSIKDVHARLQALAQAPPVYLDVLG
Serine/threonine-protein kinase 38-like (Homo sapiens), sequence (Q9Y2H1 2-464 limits assumed): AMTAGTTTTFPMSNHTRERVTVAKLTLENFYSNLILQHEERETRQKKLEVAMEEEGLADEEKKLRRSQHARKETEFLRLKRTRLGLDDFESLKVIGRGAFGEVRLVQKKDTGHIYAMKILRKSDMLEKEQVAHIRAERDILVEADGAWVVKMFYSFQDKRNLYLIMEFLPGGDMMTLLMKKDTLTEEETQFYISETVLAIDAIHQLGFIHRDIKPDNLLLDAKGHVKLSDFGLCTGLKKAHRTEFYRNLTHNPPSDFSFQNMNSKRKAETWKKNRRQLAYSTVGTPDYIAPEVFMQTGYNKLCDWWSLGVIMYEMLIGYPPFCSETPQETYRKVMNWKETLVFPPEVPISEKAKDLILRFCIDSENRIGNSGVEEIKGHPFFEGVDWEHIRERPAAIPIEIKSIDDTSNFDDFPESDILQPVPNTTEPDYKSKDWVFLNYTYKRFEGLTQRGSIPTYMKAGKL
Tyrosine-protein kinase Lyn (Homo sapiens), sequence (P07948 2-512 limits assumed): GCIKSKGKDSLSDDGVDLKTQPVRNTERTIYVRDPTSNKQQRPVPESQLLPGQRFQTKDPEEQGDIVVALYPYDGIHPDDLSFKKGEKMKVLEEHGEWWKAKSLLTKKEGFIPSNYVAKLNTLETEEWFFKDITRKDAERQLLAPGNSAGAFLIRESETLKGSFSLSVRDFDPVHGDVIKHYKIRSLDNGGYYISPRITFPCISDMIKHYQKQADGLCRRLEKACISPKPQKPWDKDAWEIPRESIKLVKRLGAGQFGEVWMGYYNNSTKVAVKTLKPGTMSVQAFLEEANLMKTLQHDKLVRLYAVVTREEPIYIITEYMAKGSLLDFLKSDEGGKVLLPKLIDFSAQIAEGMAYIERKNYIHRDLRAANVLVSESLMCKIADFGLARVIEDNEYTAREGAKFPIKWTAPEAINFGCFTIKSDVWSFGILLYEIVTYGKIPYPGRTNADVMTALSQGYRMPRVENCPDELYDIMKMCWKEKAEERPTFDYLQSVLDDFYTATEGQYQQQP
Myosin light chain kinase (Homo sapiens), sequence (Q32MK0 whole entry): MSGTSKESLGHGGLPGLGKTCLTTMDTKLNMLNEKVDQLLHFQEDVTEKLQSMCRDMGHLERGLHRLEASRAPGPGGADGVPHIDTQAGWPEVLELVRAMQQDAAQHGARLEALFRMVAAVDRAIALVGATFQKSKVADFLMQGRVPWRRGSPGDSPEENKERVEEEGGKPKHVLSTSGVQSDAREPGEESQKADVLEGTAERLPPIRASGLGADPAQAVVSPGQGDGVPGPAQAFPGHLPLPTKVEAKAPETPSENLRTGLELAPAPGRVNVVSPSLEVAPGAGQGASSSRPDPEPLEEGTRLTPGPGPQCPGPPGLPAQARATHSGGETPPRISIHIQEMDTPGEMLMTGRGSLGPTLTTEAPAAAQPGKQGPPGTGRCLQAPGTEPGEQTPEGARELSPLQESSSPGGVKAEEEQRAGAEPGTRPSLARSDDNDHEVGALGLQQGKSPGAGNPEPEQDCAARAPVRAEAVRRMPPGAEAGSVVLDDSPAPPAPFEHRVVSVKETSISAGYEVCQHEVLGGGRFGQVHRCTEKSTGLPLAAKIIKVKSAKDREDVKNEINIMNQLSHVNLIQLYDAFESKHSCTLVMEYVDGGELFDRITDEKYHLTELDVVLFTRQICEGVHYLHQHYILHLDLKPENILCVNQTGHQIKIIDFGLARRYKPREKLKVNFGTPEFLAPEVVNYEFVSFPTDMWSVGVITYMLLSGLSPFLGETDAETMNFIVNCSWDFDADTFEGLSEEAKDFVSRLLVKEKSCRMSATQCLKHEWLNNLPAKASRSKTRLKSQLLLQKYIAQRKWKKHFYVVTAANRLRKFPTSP
Serine/threonine-protein kinase PAK 4 (Homo sapiens), sequence (O96013 whole entry, looked up): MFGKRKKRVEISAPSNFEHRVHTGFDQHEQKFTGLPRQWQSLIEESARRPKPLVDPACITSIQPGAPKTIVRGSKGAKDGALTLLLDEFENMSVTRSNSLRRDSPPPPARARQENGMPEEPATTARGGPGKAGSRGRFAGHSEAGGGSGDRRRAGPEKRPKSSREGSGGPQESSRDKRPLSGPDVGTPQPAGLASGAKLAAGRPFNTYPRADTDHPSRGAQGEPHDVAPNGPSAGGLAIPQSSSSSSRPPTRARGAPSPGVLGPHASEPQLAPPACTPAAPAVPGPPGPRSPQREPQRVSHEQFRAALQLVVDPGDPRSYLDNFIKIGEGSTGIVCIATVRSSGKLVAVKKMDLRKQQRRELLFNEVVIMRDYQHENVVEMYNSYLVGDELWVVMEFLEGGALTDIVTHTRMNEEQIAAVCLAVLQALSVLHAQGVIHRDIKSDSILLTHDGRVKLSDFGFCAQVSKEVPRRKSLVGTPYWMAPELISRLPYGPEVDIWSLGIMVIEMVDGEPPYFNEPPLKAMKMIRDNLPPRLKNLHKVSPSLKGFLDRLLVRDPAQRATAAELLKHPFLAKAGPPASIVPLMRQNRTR
Death-associated protein kinase 2 (Homo sapiens), sequence (Q9UIK4 whole entry, looked up): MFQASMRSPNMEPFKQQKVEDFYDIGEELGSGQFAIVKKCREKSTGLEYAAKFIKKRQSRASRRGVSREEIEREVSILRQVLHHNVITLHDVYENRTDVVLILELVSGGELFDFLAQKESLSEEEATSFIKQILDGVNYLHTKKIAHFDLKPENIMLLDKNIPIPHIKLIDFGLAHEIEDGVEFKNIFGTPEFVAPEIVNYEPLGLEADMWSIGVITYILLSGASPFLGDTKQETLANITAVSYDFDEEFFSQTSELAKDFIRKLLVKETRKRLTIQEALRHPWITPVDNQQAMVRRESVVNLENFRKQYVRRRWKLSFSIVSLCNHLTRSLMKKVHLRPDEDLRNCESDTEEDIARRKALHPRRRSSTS
Sodium-dependent dopamine transporter, sequence (Q01959 whole entry): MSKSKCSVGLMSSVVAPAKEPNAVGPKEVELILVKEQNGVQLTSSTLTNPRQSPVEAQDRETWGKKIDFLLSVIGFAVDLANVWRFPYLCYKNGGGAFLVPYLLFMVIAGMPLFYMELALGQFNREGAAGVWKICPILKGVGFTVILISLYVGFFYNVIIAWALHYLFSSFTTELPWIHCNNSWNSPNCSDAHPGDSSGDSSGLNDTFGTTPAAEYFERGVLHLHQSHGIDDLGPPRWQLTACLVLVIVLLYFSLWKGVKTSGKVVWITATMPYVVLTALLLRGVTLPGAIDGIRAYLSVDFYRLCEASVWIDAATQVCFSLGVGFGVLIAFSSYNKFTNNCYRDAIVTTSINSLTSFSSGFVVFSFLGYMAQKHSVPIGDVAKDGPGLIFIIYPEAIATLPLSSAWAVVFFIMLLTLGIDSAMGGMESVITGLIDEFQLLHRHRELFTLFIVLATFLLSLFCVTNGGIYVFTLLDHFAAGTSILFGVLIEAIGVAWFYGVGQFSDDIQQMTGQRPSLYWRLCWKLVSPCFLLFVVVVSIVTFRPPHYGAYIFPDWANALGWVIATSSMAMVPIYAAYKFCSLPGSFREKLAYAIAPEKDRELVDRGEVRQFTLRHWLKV

SMILES	residual activity [1] [%]	residual activity [2] [%]	residual activity [3] [%]	residual activity [4] [%]	residual activity [5] [%]	residual activity [6] [%]	residual activity [7] [%]	residual activity [8] [%]	residual activity [9] [%]	residual activity [10] [%]	residual activity [11] [%]	residual activity [12] [%]	residual activity [13] [%]	residual activity [14] [%]	residual activity [15] [%]	residual activity [16] [%]	residual activity [17] [%]	residual activity [18] [%]	inhibition [19] [%]	residual activity [20] [%]	further results
CN(C)C(=O)Cn1cc(-c2nc(C3(c4ccc(-c5cnc(N)nc5)cc4)CC3)no2)cn1 [BI 0153]	55	100	100	98	100	100	100	100	100	100	100	97	100	100	100	92	89	99	52.4	100	residual activity [21]: 79%; residual activity [22]: 100%; inhibition [23]: -9.18%; residual activity [24]: 100%; residual activity [25]: 86%; residual activity [26]: 100%; residual activity [27]: 81%; residual activity [28]: 77%; inhibition [29]: 8.33%
CN(C)C(=O)Cn1cc(-c2nc([C@@](C)(c3ccc(-c4cnc(N)nc4)cc3)C3CC3)no2)cn1 [BI 665915]	66	96	100	93	70	89	100	75	83	89	81	83	100	100	97	98	100	100	60.7	100	residual activity [21]: 87%; residual activity [22]: 87%; inhibition [23]: -8.4%; residual activity [24]: 90%; residual activity [25]: 100%; residual activity [26]: 100%; residual activity [27]: 91%; residual activity [28]: 100%; inhibition [29]: 18.9%
